In general, pEC50 refers to the negative decadic logarithm of the EC50, by convention in mol/L.

pEC50: −log10 of the molar value.

human mGluR4, sequence (Q14833 33-912): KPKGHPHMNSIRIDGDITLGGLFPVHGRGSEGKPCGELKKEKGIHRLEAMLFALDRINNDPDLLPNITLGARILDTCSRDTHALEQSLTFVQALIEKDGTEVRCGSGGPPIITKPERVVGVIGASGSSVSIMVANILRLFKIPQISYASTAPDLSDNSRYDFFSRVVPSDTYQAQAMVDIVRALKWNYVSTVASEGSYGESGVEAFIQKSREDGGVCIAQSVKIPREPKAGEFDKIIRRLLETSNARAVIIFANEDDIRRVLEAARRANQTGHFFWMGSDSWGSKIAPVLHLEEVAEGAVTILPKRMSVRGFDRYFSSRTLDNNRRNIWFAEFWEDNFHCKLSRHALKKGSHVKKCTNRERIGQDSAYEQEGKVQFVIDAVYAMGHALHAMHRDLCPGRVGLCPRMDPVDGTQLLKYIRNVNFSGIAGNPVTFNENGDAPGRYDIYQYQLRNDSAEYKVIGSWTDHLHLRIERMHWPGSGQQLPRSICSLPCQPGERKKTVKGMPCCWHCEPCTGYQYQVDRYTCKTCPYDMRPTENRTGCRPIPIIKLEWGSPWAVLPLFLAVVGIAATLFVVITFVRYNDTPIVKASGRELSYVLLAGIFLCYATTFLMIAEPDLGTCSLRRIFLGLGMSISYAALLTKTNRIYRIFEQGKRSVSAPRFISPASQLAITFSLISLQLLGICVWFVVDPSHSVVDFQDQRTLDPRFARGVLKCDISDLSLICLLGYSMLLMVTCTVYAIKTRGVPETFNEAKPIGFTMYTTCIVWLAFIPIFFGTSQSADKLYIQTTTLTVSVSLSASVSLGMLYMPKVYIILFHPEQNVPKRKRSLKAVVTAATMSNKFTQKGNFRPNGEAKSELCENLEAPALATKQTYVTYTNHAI

The assay deals with human mGluR4 (Homo sapiens (Human), UniProt Q14833). Nature of the assay: mGluR4 potentiation assay, CHO cells transfected with human mGluR4, Ca2+-sensitive fluorescent dye, EC20 agonist. The note with it: potentiation of mGluR4; table does not state human or rat receptor. The format is cell-based. The protocol:
The disclosed compounds and compositions can be evaluated for their ability to act as a potentiator of metabotropic glutamate receptor activity, in particular mGluR4 activity, by any suitable known methodology known in the art. For example, Chinese Hamster Ovary (CHO) cells transfected with human mGluR4 or HEK cells co-transfected with rat mGluR4 and the G-protein regulated Inwardly Rectifying Potassium channel (GIRK) were plated in clear bottom assay plates for assay in a Hamamatsu FDSS Fluorometric Plate Reader. The cells were loaded with either a Ca2+-sensitive fluorescent dye or the thallium responsive dye and the plates were washed and placed into a suitable kinetic plate reader. For human mGluR4 assays, a fluorescence baseline was established for 3-5 seconds, the disclosed compounds were then added to the cells, and the response in cells was measured. Approximately two and a half minutes later, a concentration of mGluR4 orthosteric agonist (e.g. glutamate or L-AP4) eliciting approximately 20% (EC20) of the maximal agonist response was added to the cells, and the response was measured. Two minutes later, a concentration of mGluR4 agonist (e.g. glutamate or L-AP4) eliciting 80% (EC80) of the maximal agonist response was added to the cells, and the response was measured. For rat mGluR4/GIRK experiments, a baseline was established for approximately five seconds, disclosed compounds were added, and either an EC20 or EC80 concentration of agonist was added approximately two and one half minutes later.
The above described assay operated in two modes. In the first mode, a range of concentrations of the disclosed compounds are added to cells, followed by a single fixed concentration of agonist. If the compound acts as a potentiatior, an EC50 value for potentiation and a maximum extent of potentiation by the compound at this concentration of agonist is determined by non-linear curve fitting. If the compound acts as a noncompetitive antagonist, an IC50 value is determined by non-linear curve fitting. In the second mode, several fixed concentrations of the disclosed compounds are added to various wells on a plate, followed by a range in concentrations of agonist for each concentration of disclosed compound. The EC50 values for the agonist at each concentration of compound are determined by non-linear curve fitting. A decrease in the EC50 value of the agonist with increasing concentrations of the sample compound (a leftward shift of the agonist concentration-response curve) is an indication of the degree of mGluR4 potentiation at a given concentration of the sample compound. A decrease in the maximal response of the agonist with increasing concentrations of the sample compounds, with or without a rightward shift in agonist potency, is an indication of the degree of noncompetitive antagonism at mGluR4. The second mode also indicates whether the sample compounds also affect the maximum response to mGluR4 to agonists.
`Fc1cc(Cl)cc(Nc2n[nH]c3cccnc23)c1` [Example 70, N-(3-chloro-5-fluorophenyl)-1H-pyrazolo[4,3-b]pyridin-3-amine]: the pEC50 was 7.49.

Take `Clc1ccc(Nc2n[nH]c3cccnc23)cc1Cl` [Example 68, N-(3,4-dichlorophenyl)-1H-pyrazolo[4,3-b]pyridin-3-amine]: the pEC50 was 6.95.

For the compound `FC(F)(F)c1cc(Nc2n[nH]c3cccnc23)cc(C(F)(F)F)c1` [Example 67, N-(3,5-bis(trifluoromethyl)phenyl)-1H-pyrazolo[4,3-b]pyridin-3-amine], the pEC50 is 5.52.

For the compound `Clc1cc(Nc2n[nH]c3cccnc23)ccc1Oc1cnccn1` [Example 66, N-(3-chloro-4-(pyrazin-2-yloxy)phenyl)-1H-pyrazolo[4,3-b]pyridin-3-amine], the pEC50 was 6.97.

Turning to `Fc1c(Cl)cccc1Nc1n[nH]c2cccnc12` [Example 17, N-(3-chloro-2-fluorophenyl)-1H-pyrazolo[4,3-b]pyridin-3-amine], the pEC50 was 6.21.

For `c1ccc(Nc2n[nH]c3cccnc23)cc1` [Example 20, N-phenyl-1H-pyrazolo[4,3-b]pyridin-3-amine], the pEC50 was 5.84.

Turning to `Clc1cc(Cl)cc(Nc2n[nH]c3cccnc23)c1` [Example 69, N-(3,5-dichlorophenyl)-1H-pyrazolo[4,3-b]pyridin-3-amine], the pEC50 is 7.37.

On to `Fc1ncc(Cl)cc1Nc1n[nH]c2cccnc12` [Example 34, N-(5-chloro-2-fluoropyridin-3-yl)-1H-pyrazolo[4,3-b]pyridin-3-amine], for which the pEC50 was 6.22.

For the compound `FC(F)(F)c1cccc(Nc2n[nH]c3cccnc23)c1` [Example 3, N-(3-(trifluoromethyl)phenyl)-1H-pyrazolo[4,3-b]pyridin-3-amine], the pEC50 was 6.84.

As to `COc1cccc(Nc2n[nH]c3cccnc23)c1` [Example 19, N-(3-methoxyphenyl)-1H-pyrazolo[4,3-b]pyridin-3-amine], the pEC50 was 6.77.

As for `Clc1cccc(CNc2n[nH]c3cccnc23)c1` [Example 50, N-(3-chlorobenzyl)-1H-pyrazolo[4,3-b]pyridin-3-amine], the pEC50 is 4.76.

With `Clc1ccc(Oc2ccc(Nc3n[nH]c4cccnc34)cc2Cl)cc1` [Example 81, N-(3-chloro-4-(4-chlorophenoxy)phenyl)-1H-pyrazolo[4,3-b]pyridin-3-amine], the pEC50 was 5.81.

`Fc1cccc(Nc2n[nH]c3cccnc23)c1` [Example 12, N-(3-fluorophenyl)-1H-pyrazolo[4,3-b]pyridin-3-amine]: the pEC50 is 6.23.

Take `Clc1ccnc(Nc2n[nH]c3cccnc23)c1` [Example 13, N-(4-chloropyridin-2-yl)-1H-pyrazolo[4,3-b]pyridin-3-amine]: the pEC50 is 6.55.

Regarding `Clc1cc(Nc2n[nH]c3cccnc23)ccc1Oc1ncccn1` [Example 24, N-(3-chloro-4-(pyrimidin-2-yloxy)phenyl)-1H-pyrazolo[4,3-b]pyridin-3-amine], the pEC50 was 6.94.

Turning to `Cc1cccc(Nc2n[nH]c3cccnc23)c1` [Example 18, N-(m-tolyl)-1H-pyrazolo[4,3-b]pyridin-3-amine], the pEC50 is 7.29.

Turning to `Oc1ccc(Nc2n[nH]c3cccnc23)cc1Cl` [Example 36, 4-((1H-pyrazolo[4,3-b]pyridin-3-yl)amino)-2-chlorophenol], the pEC50 is 6.66.

As for `Cc1cncc(Nc2n[nH]c3cccnc23)c1` [Example 33, N-(5-methylpyridin-3-yl)-1H-pyrazolo[4,3-b]pyridin-3-amine], the pEC50 is 5.13.

In the case of `Clc1cc(Nc2n[nH]c3cccnc23)cnc1N1CCOCC1` [Example 30, N-(5-chloro-6-morpholinopyridin-3-yl)-1H-pyrazolo[4,3-b]pyridin-3-amine], the pEC50 was 5.62.

Regarding `Clc1cccc(Nc2n[nH]c3cccnc23)c1` [Example 1, N-(3-chlorophenyl)-1H-pyrazolo[4,3-b]pyridin-3-amine], the pEC50 was 6.86.

The values are drawn from patent publication US9163015B2, “Pyrazolopyridine, pyrarolopyrazine, pyrazolopyrimidine, pyrazolothiophene and pyrazolothiazole compounds as MGLUR4 allosteric potentiators, compositions, and methods of treating neurological dysfunction” (Vanderbilt University, priority 2010, dated 2015).
